This note sets out measurements from article PMC6768323, “Adverse Maternal, Fetal, and Postnatal Effects of Hexafluoropropylene Oxide Dimer Acid (GenX) from Oral Gestational Exposure in Sprague-Dawley Rats” (Environmental Health Perspectives, 2019).

The subject of one data set is fetal testis. Briefly: Fetal testis custom gene array for phthalate-like effects. Format: in vivo, Sprague-Dawley rats. The note with it: 62.5-500 mg/kg/d. As to the method:
For the first two blocks, spanning the full dose range, late gestation (GD18) dams were euthanized by decapitation at ∼2h after the final oral dose [ ∼0830–1000 hours Eastern Standard Time (EST)]. Trunk blood was collected and serum isolated via centrifugation ( 10,000×g for 15 min at 4°C) in vacutainer tubes, transferred to 1.5-mL microcentrifuge tubes and stored at −80°C . Dam liver weight was recorded and a sample of liver tissue was collected into a polypropylene microcentrifuge tube containing 500μL TRIzol Reagent (Invitrogen) on ice. Fetuses were removed and two randomly selected fetuses per litter were weighed. […] Ex vivo fetal testis testosterone production was measured as previously reported ([Wilson et al. 2004b]) except the radioimmunoassay (RIA) utilized here was supplied by ALPCO (Catalog No. 72-TESTO-CT2, ALPCO). […]
Gene expression in fetal testes and fetal/maternal livers was assessed using reverse transcriptase real-time PCR of cDNA synthesized from RNA extracted from sample homogenates. […] RNA concentration and purity (260:280 ratio ≥1.8 ) were determined with a NanoDrop 2000 spectrophotometer (Thermo Scientific). […] PCR reactions were run using RT2 SYBR Green quantitative PCR (qPCR) Master Mix (SABioscience) on an iCycler iQ Real-Time Detection System (Bio-Rad) for fetal testes and on a CFX96 Touch Real-Time Detection System (Bio-Rad) for maternal and fetal livers. […]

The test system of data set [1] is pregnant Sprague-Dawley rats. Briefly: Maternal and fetal effects of GD14-18 oral dosing (weights, reproductive output). Format: in vivo. On the procedure:
A total of three blocks of 15 dams per block were dosed once daily from GD14–18 with either water vehicle (control) or HFPO-DA to evaluate fetal and maternal effects (Figure 1A). The first block of dams was dosed with control, 62.5, 125, 250, or 500mg/kg HFPO-DA ( n=3 dams for each). The second and third blocks of dams were dosed with control, 1, 3, 10, or 30mg/kg HFPO-DA ( n=3 per dose per block). Total sample sizes were n=9 for control, n=6 for 1, 3, 10, 30mg/kg , and n=3 for 62.5, 125, 250, and 500mg/kg HFPO-DA. In the first two blocks, spanning the entire dose range, we evaluated fetal testis testosterone production, fetal testis gene expression, fetal and maternal liver gene expression, fetal body weight, and maternal serum thyroid hormone and lipid concentrations. In the third block, encompassing the lower dose range utilized here, we collected fetal plasma for measuring HFPO-DA concentrations. Across all three blocks we evaluated maternal weight gain during dosing, reproductive output (number of fetuses and resorptions), maternal serum HFPO-DA concentration, and maternal liver weight at necropsy.
For the first two blocks, spanning the full dose range, late gestation (GD18) dams were euthanized by decapitation at ∼2h after the final oral dose [ ∼0830–1000 hours Eastern Standard Time (EST)]. Trunk blood was collected and serum isolated via centrifugation ( 10,000×g for 15 min at 4°C) in vacutainer tubes, transferred to 1.5-mL microcentrifuge tubes and stored at −80°C . Dam liver weight was recorded and a sample of liver tissue was collected into a polypropylene microcentrifuge tube containing 500μL TRIzol Reagent (Invitrogen) on ice. Fetuses were removed and two randomly selected fetuses per litter were weighed. Fetal testes were collected from all male pups with a single testis from the first three males used for determination of ex vivo testosterone production and the remaining testes were homogenized and preserved in TRIzol Reagent for gene expression analysis. The liver was collected from a single, randomly selected fetus per dam/litter for gene expression analysis and transferred to a polypropylene microcentrifuge tube containing 500μL TRIzol Reagent (Invitrogen) on ice. Both dam and fetal liver samples were individually homogenized using a Bullet Blender (Next Advance) with 1-mm zirconium oxide beads, transferred to clean tubes, and stored at −80°C prior to RNA extraction (see below). Ex vivo fetal testis testosterone production was measured as previously reported ([Wilson et al. 2004b]) except the radioimmunoassay (RIA) utilized here was supplied by ALPCO (Catalog No. 72-TESTO-CT2, ALPCO). Briefly, one testis was isolated from each of three separate male fetuses in each litter and incubated in a humidified atmosphere at 37°C for 3 h in 500μL of M-199 media (phenol red–free; Hazelton Biologics, Inc.) supplemented with 10% dextran-coated charcoal-stripped fetal bovine serum (Hyclone Laboratories) in 24-well plates under gentle agitation. After incubation, media were removed and stored in siliconized microcentrifuge tubes at −80°C until RIA analyses, which were performed according to manufacturer specifications.
For the third block, dosed with the lower dose range ( 1–30mg/kg HFPO-DA), late gestation (GD18) dams were euthanized by decapitation ∼2h after the final dose, liver weight was recorded, and trunk blood was collected for serum isolation. Serum was isolated from trunk blood via centrifugation ( 10,000×g; 15 min; 4°C) using Becton Dickinson vacutainer tubes and stored in 1.5-mL siliconized microcentrifuge tubes at −80°C for future analyses. Fetuses were removed and fetal blood was collected from the jugular vein from all fetuses within a litter using heparinized glass capillary tubes. Blood was expelled from capillary tubes using fine-tip disposable transfer pipets into a microcentrifuge tube forming a single composite sample per litter. […]

“And” between values parts separate entries of the source, which are not always exact repeats. Equal values may be shown once. Bounds are passed on as bounds.

For `O=C(O)C(F)(OC(F)(F)C(F)(F)C(F)(F)F)C(F)(F)F` (stereo not drawn) [HFPO-DA, Hexafluoropropylene oxide dimer acid], the “fetal testis gene expression versus controls” value in the data set with fetal testis is “not significantly different from controls”. Also, the “numbers of live pups, resorptions, fetal body weight compared with controls” value in data set [1] (1-500 mg/kg) was “no significant differences”. Moreover, in data set [1] (1-500 mg/kg/d), the “Dam BW GD18” value is 378.6 ± 19.1 g and 364.1 ± 15.6 g and 371.5 ± 11.4 g and 354.3 ± 12.4 g and 366.2 ± 9.9 g and 346.7 ± 5.5 g and 350.2 ± 6.0 g and 369.8 ± 15.1 g; the No. fetuses was 12.3 ± 1.0 and 13.3 ± 0.6 and 13.2 ± 0.5 and 13.5 ± 0.4 and 12.7 ± 0.9 and 14.3 ± 0.3 and 13.7 ± 1.3 and 14.7 ± 0.3. Moreover, the “maternal body weight gain compared with controls” value in data set [1] (GD14-18 dosing window) is “significantly less body weight gain at the 250- and 500-mg/kg dose levels”. For the same compound, in data set [1] (GD18, 1-500 mg/kg/d), the Dam liver wt is 15.8 ± 0.7 g and 16.7 ± 1.1 g and 16.5 ± 0.5 g and 17.2 ± 0.5 g and 17.8 ± 0.7 g and 19.1 ± 0.6 g and 19.6 ± 0.3 g and 19.2 ± 0.6 g; the “Fetal BW” value is 908.7 ± 27.0 mg and 816.7 ± 24.2 mg and 841.0 ± 38.4 mg and 842.2 ± 50.5 mg and 863.7 ± 31.7 mg and 841.8 ± 46.7 mg and 889.1 ± 26.9 mg and 808.2 ± 88.9 mg. Besides, the “Dam BW GD14” value in data set [1] (dose order 1, 3, 10, 30, 62.5, 125, 250, 500 mg/kg/d) is 337.0 ± 12.9 g and 341.6 ± 14.1 g and 330.8 ± 13.4 g and 338.0 ± 11.5 g and 320.9 ± 8.7 g and 330.6 ± 8.8 g and 325.8 ± 3.7 g and 339.1 ± 10.5 g. In addition, in data set [1] (oral GD14-18), the “dose with higher maternal liver weights” value is no less than 62.5 mg/kg.
